Source: US20230218754A1, “PHARMACEUTICAL COMPOSITIONS WITH ANTI-RANKL ANTIBODIES, CALCIUM AND VITAMIN D” (priority 2016, published 2023)
Where “and” joins values, the source holds several entries; their conditions need not be identical. Identical values can stand only once.

Tests used:
[1] = 25(OH) vitamin D3 serum concentration under vitamin D maintenance dose in patients with vitamin D deficiency; type: in vivo, human; conditions: maintenance dose of 400 IU of vitamin D daily
[2] = as above; type: in vivo, human
Source text: Vitamin D deficiency is a common diagnosis in osteology practice. […] The maintenance dose was 1000 IU of vitamin D daily.

[3] = serum calcium level in patients under denosumab plus calcium and vitamin D3; type: in vivo, human
Procedure: The following data from an oncological patient (prostate cancer) in Table 5 show the serum levels of calcium and vitamin D3 in administration of 120 mg of denosumab (anti-RANKL antibody, Xgeva) every 4 weeks and the oral administration of 500 mg of calcium daily and 1000 IU of vitamin D3 daily.
In Table 5, the patient received 120 mg of denosumab every 4 weeks and 500 mg of calcium and 1000 IU of vitamin D3:
The following data from osteoporosis patients in Table 6 show the serum values of calcium and vitamin D3 in administration of 60 mg of anti-RANKL antibody/denosumab (Prolia) every 6 months and the oral administration of 500 mg of calcium daily and 1000 IU of vitamin D3 daily.
In Table 6, the osteoporosis patients received 60 mg of denosumab every 6 months, 500 mg of calcium daily, and 1000 IU of vitamin D3, also daily: […]

[4] = chair-rising test (standing up test) in osteoporosis patients; type: in vivo, human; conditions: 60 mg denosumab (Prolia) + 500 mg calcium + 1000 IE vitamin D3
Procedure: The so-called “chair-rising test” (standing up test) was carried out in 3 patients.
The chair-rising test (standing up test) allows a determination to made concerning the strength and falling risk of the test person. The test person is asked to stand up and sit back down five times as quickly as possible with his/her arms folded over his/her chest and without using them from a chair of ordinary height (approximately 46 cm seat height). If the patient is not capable of doing this, the number of successful completions are counted rather than the seconds. If the patient takes longer than 10-11 seconds, it must be assumed that he/she is at increased risk of falling.
The improvement is given in the right column in %.

[5] = background statement; cited from earlier work

## vitamin D
[1]
  maintaining the vitamin D concentration at the standard level: not sufficient
[2]; individual female patients with initial vitamin D deficiency, 1000 IU vitamin D daily
  25(OH) vitamin D3 serum concentration at maintenance dose of 1000 IU of vitamin D daily: 29.2 ng/mL and 30.4 ng/mL and 28.8 ng/mL and 23.7 ng/mL and 23.2 ng/mL and 30.5 ng/mL and 25.5 ng/mL and 23.4 ng/mL
[2]; maintenance dose of 1000 IU of vitamin D daily
  maintaining the vitamin D level in the normal range: suitable

## denosumab: anti-RANKL antibody approved as a medicinal preparation; marketed by Amgen as Prolia (60 mg) and Xgeva (120 mg)
[3]; oncological patient (prostate cancer), 120 mg denosumab (Xgeva) every 4 weeks + 500 mg calcium and 1000 IU vitamin D3 daily, after 13 weeks
  Calcium (serum): 2.11 mmol/L
[3]; oncological patient (prostate cancer), 120 mg denosumab (Xgeva) every 4 weeks + 500 mg calcium and 1000 IU vitamin D3 daily, after 26 weeks
  Calcium (serum): 2.12 mmol/L
[3]; osteoporosis patients, 60 mg denosumab (Prolia) every 6 months + 500 mg calcium and 1000 IU vitamin D3 daily, after 13 weeks
  Calcium (serum): 2.34 mmol/L and 2.32 mmol/L and 2.3 mmol/L and 2.37 mmol/L
[3]; osteoporosis patients, 60 mg denosumab (Prolia) every 6 months + 500 mg calcium and 1000 IU vitamin D3 daily, after 26 weeks
  Calcium (serum): 2.32 mmol/L and 2.45 mmol/L
[4]; osteoporosis patients, 6 months after beginning therapy
  Chair Rising time repeated 6 months later: 8 s and 10 s
[4]; three osteoporosis patients, 6 months
  reduction of the risk of falling: 11-29%

## C=C1/C(=C\C=C2/CCC[C@]3(C)[C@@H]([C@H](C)CCCC(C)(C)O)CC[C@@H]23)C[C@@H](O)C[C@@H]1O [calcitriol, 1α,25-dihydroxycholecalciferol]
[5]
  time to maximum serum concentration after intake: three to six
